From US11679114B2, “Progestogen-only oral contraception” (Navad Life Sciences Pte, priority 2021, dated 2023)
Read-outs that look alike come from different tables or passages of the source.

How the values were obtained:
Assay type in all cases: in vivo, human
[1] = tested on: healthy, cyclic women; assay: Adverse events and tolerability
Experimental: At every visit, the subjects were questioned for adverse events and use of concomitant medication. Safety laboratory and pregnancy tests were performed at regular intervals during the study. Physical examinations were performed at screening and end of study.

[2] = Multiple-dose pharmacokinetics, plasma LNG concentrations on treatment day 55 (±1); settings: for AUC(0-t) / Cmax: female, human, plasma, po
Experimental: Serum SHBG concentrations were determined after ovulation in the pre-treatment cycle, on treatment day 55 (±1) and at the end-of-study examination. Multiple-dose PK parameters were investigated in approximately 15 subjects per dose group, 5 of them having a BMI≥30 kg/m^2. Blood samples for LNG determination were taken on treatment day 55 (±1) pre-dose and 0.5, 1, 2, 3, 4, 6 and 24 hours after dosing.
Plasma LNG concentrations were determined by a validated liquid chromatography hyphenated with tandem mass spectrometry method (ACC, Leidersbach, Germany). PK parameters were derived by means of non-compartmental analysis. Analysis of Variance (ANOVA) was used as basis for the calculation of 90% confidence intervals; point estimates and confidence intervals for area under the curve (AUC) and maximum concentration (Cmax) values and comparison of treatments which were calculated by parametric analysis. Descriptive statistics for each treatment group and for subgroups with BMI<30 and ≥30 kg/m^2 were calculated.

[3] = tested on: healthy, cyclic women; assay: Diameter of the largest follicle-like structure (FLS) by transvaginal ultrasonography
Experimental: The tablets prepared in Example 1 were tested in a single-center, open-label, adaptive design study to evaluate the influence on hormonal and ovarian function and vaginal bleeding pattern of different higher dosages of LNG administered once daily for 28 days over two consecutive treatment cycles in healthy, cyclic women.
Subjects started study medication intake on the first day of menstrual bleeding after the pre-treatment cycle. One tablet was taken orally, around the same time every morning, during 56 consecutive days. Study visits were planned every three (±1) days from treatment day 3 (±1) until 27 (±1) and from day 31 (±1) until day 55 (±1). At each visit the diameter of the largest follicle-like structure (FLS) and serum follicle-stimulating hormone (FSH), luteinizing hormone (LH), estradiol (E2) and P concentrations were measured.
If ovulation was observed during treatment, the subsequent luteal phase was evaluated using the Landgren criterion, i.e. the luteal phase was considered adequate when P concentrations were >16 nmol/L during at least 5 days (Landgren et al., “Hormonal effects of the 300 μg norethisterone (NET) minipill. 1. Daily steroid levels in 43 subjects during a pretreatment cycle and during the second month of NET administration,” Contraception 1980; 21: pp. 87-113). TVUS measurements of the diameter of the largest FLS (mean of two directions) were performed using a Voluson E8 Expert device (GE Medical Systems). Serum FSH, LH, E2, P and SHBG concentrations were determined by validated chemiluminescent microparticle immunoassays (Abbott, Longford, Ireland). All pharmacodynamic parameters were evaluated descriptively.

[4] = tested on: healthy, cyclic women; assay: Return of ovulation after the last treatment day; settings: for Ovulation observed, average days after last treatment: post-treatment period
Experimental: After the last treatment day, assessments were continued every three (±1) days until ovulation was observed, followed by P measurements 2 (±1) and, if necessary, 4 (±1) days after ovulation. An end-of-study examination was performed 6 (±1) days after ovulation, or on day 30 (±1) in case no ovulation had been observed until then.

[5] = 0.095 mg per day oral over 55 ± 1 consecutive days, entire treatment group
[6] = 0.115 mg per day oral over 55 ± 1 consecutive days, entire treatment group
[7] = 0.135 mg per day oral over 55 ± 1 consecutive days, entire treatment group
[8] = LNG 0.095 mg per day, entire treatment period
[9] = LNG 0.095 mg per day, treatment period 1
[10] = LNG 0.095 mg per day, treatment period 2
[11] = LNG 0.115 mg per day, entire treatment period
[12] = LNG 0.115 mg per day, treatment period 1
[13] = LNG 0.115 mg per day, treatment period 2
[14] = LNG 0.135 mg per day, entire treatment period
[15] = LNG 0.135 mg per day, treatment period 1
[16] = LNG 0.135 mg per day, treatment period 2

SMILES: C#C[C@]1(O)CC[C@H]2[C@@H]3CCC4=CC(=O)CC[C@@H]4[C@H]3CC[C@@]21CC (racemic) [LNG, levonorgestrel]
- n acne events, possibly IMP related ([1]; 0.095 mg LNG, n subjects 30): 3
- n acne events, possibly IMP related ([1]; 0.115 mg LNG, n subjects 29): 4
- n acne events, possibly IMP related ([1]; 0.135 mg LNG, n subjects 29): 4
- Tolerability of the study medication ([1]; LNG 0.095, 0.115 or 0.135 mg per day for 56 days): well tolerated
- AUC0-24, ss, Max [2, 5]: 23.2 ng·h/mL
- AUC0-24, ss, Min [2, 5]: 7.29 ng·h/mL
- Cmax, ss, Max [2, 5]: 3.12 ng/mL
- Cmax, ss, Min [2, 5]: 0.903 ng/mL
- AUC0-24, ss, Max [2, 6]: 26.1 ng·h/mL
- AUC0-24, ss, Min [2, 6]: 5.58 ng·h/mL
- Cmax, ss, Max [2, 6]: 2.83 ng/mL
- Cmax, ss, Min [2, 6]: 0.73 ng/mL
- AUC0-24, ss, Max [2, 7]: 30 ng·h/mL
- AUC0-24, ss, Min [2, 7]: 10.2 ng·h/mL
- Cmax, ss, Max [2, 7]: 3.23 ng/mL
- Cmax, ss, Min [2, 7]: 1.14 ng/mL
- Dose proportionality of total exposure over the dosing interval ([2]; 0.095, 0.115 and 0.135 mg per day, day 55±1): dose proportionality
- AUC(0-t) ([2]; 0.095 mg per day, 0.095 mg per day oral over 55 ± 1 consecutive days, entire treatment group, read-out: AUC0-24, ss, Geometric Mean): 12.4 ng·h/mL
- AUC(0-t) ([2]; 0.095 mg per day, 0.095 mg per day oral over 55 ± 1 consecutive days, entire treatment group, read-out: AUC0-24, ss, Mean): 13.1 ng·h/mL
- AUC(0-t) ([2]; 0.095 mg per day, 0.095 mg per day oral over 55 ± 1 consecutive days, entire treatment group, read-out: AUC0-24, ss, Median): 11.8 ng·h/mL
- Cmax ([2]; 0.095 mg per day, 0.095 mg per day oral over 55 ± 1 consecutive days, entire treatment group, read-out: Cmax, ss, Geometric Mean): 1.55 ng/mL
- Cmax ([2]; 0.095 mg per day, 0.095 mg per day oral over 55 ± 1 consecutive days, entire treatment group, read-out: Cmax, ss, Mean): 1.65 ng/mL
- Cmax ([2]; 0.095 mg per day, 0.095 mg per day oral over 55 ± 1 consecutive days, entire treatment group, read-out: Cmax, ss, Median): 1.63 ng/mL
- AUC(0-t) ([2]; 0.095 mg per day, 0.095 mg per day oral over 55 ± 1 consecutive days, subgroup BMI < 30 kg/m2, read-out: AUC0-24, ss, Geometric mean): 14 ng·h/mL
- Cmax ([2]; 0.095 mg per day, 0.095 mg per day oral over 55 ± 1 consecutive days, subgroup BMI < 30 kg/m2, read-out: Cmax, ss, Geometric mean): 1.83 ng/mL
- AUC(0-t) ([2]; 0.095 mg per day, 0.095 mg per day oral over 55 ± 1 consecutive days, subgroup BMI ≥ 30 kg/m^2, read-out: AUC0-24, ss, Geometric mean): 9.2 ng·h/mL
- Cmax ([2]; 0.095 mg per day, 0.095 mg per day oral over 55 ± 1 consecutive days, subgroup BMI ≥ 30 kg/m^2, read-out: Cmax, ss, Geometric mean): 1.05 ng/mL
- AUC(0-t) ([2]; 0.115 mg per day, 0.115 mg per day oral over 55 ± 1 consecutive days, entire treatment group, read-out: AUC0-24, ss, Geometric Mean): 13.8 ng·h/mL
- AUC(0-t) ([2]; 0.115 mg per day, 0.115 mg per day oral over 55 ± 1 consecutive days, entire treatment group, read-out: AUC0-24, ss, Mean): 14.8 ng·h/mL
- AUC(0-t) ([2]; 0.115 mg per day, 0.115 mg per day oral over 55 ± 1 consecutive days, entire treatment group, read-out: AUC0-24, ss, Median): 12.9 ng·h/mL
- Cmax ([2]; 0.115 mg per day, 0.115 mg per day oral over 55 ± 1 consecutive days, entire treatment group, read-out: Cmax, ss, Geometric Mean): 1.67 ng/mL
- Cmax ([2]; 0.115 mg per day, 0.115 mg per day oral over 55 ± 1 consecutive days, entire treatment group, read-out: Cmax, ss, Mean): 1.79 ng/mL
- Cmax ([2]; 0.115 mg per day, 0.115 mg per day oral over 55 ± 1 consecutive days, entire treatment group, read-out: Cmax, ss, Median): 1.81 ng/mL
- AUC(0-t) ([2]; 0.115 mg per day, 0.115 mg per day oral over 55 ± 1 consecutive days, subgroup BMI < 30 kg/m2, read-out: AUC0-24, ss, Geometric mean): 16.3 ng·h/mL
- Cmax ([2]; 0.115 mg per day, 0.115 mg per day oral over 55 ± 1 consecutive days, subgroup BMI < 30 kg/m2, read-out: Cmax, ss, Geometric mean): 2.03 ng/mL
- AUC(0-t) ([2]; 0.115 mg per day, 0.115 mg per day oral over 55 ± 1 consecutive days, subgroup BMI ≥ 30 kg/m^2, read-out: AUC0-24, ss, Geometric mean): 9.32 ng·h/mL
- Cmax ([2]; 0.115 mg per day, 0.115 mg per day oral over 55 ± 1 consecutive days, subgroup BMI ≥ 30 kg/m^2, read-out: Cmax, ss, Geometric mean): 1.05 ng/mL
- AUC(0-t) ([2]; 0.135 mg per day, 0.135 mg per day oral over 55 ± 1 consecutive days, entire treatment group, read-out: AUC0-24, ss, Geometric Mean): 16.8 ng·h/mL
- AUC(0-t) ([2]; 0.135 mg per day, 0.135 mg per day oral over 55 ± 1 consecutive days, entire treatment group, read-out: AUC0-24, ss, Mean): 17.5 ng·h/mL
- AUC(0-t) ([2]; 0.135 mg per day, 0.135 mg per day oral over 55 ± 1 consecutive days, entire treatment group, read-out: AUC0-24, ss, Median): 16.9 ng·h/mL
- Cmax ([2]; 0.135 mg per day, 0.135 mg per day oral over 55 ± 1 consecutive days, entire treatment group, read-out: Cmax, ss, Geometric Mean): 1.92 ng/mL
- Cmax ([2]; 0.135 mg per day, 0.135 mg per day oral over 55 ± 1 consecutive days, entire treatment group, read-out: Cmax, ss, Mean): 2.01 ng/mL
- Cmax ([2]; 0.135 mg per day, 0.135 mg per day oral over 55 ± 1 consecutive days, entire treatment group, read-out: Cmax, ss, Median): 1.93 ng/mL
- AUC(0-t) ([2]; 0.135 mg per day, 0.135 mg per day oral over 55 ± 1 consecutive days, subgroup BMI < 30 kg/m2, read-out: AUC0-24, ss, Geometric mean): 17.6 ng·h/mL
- Cmax ([2]; 0.135 mg per day, 0.135 mg per day oral over 55 ± 1 consecutive days, subgroup BMI < 30 kg/m2, read-out: Cmax, ss, Geometric mean): 2.14 ng/mL
- AUC(0-t) ([2]; 0.135 mg per day, 0.135 mg per day oral over 55 ± 1 consecutive days, subgroup BMI ≥ 30 kg/m^2, read-out: AUC0-24, ss, Geometric mean): 15.3 ng·h/mL
- Cmax ([2]; 0.135 mg per day, 0.135 mg per day oral over 55 ± 1 consecutive days, subgroup BMI ≥ 30 kg/m^2, read-out: Cmax, ss, Geometric mean): 1.52 ng/mL
- Time at which maximum plasma LNG values were reached after dosing ([2]; study drug administration on day 55±1, all dosages): 1 h
- Maximum FLS diameter, Mean ± SD ([3]; LNG 0.095 mg per day, BMI < 30 kg/m^2, entire treatment period): 22.5 ± 8.2 mm
- Maximum FLS diameter, Mean ± SD ([3]; LNG 0.095 mg per day, BMI ≥ 30 kg/m^2, entire treatment period): 20.6 ± 6.9 mm
- Maximum FLS diameter, Mean ± SD [3, 8]: 22.1 ± 7.9 mm
- Maximum FLS diameter, Median [3, 8]: 22.5 mm
- Maximum FLS diameter, Mean ± SD [3, 9]: 20.0 ± 8.6 mm
- Maximum FLS diameter, Median [3, 9]: 20.6 mm
- Maximum FLS diameter, Mean ± SD [3, 10]: 20.5 ± 7.5 mm
- Maximum FLS diameter, Median [3, 10]: 20.2 mm
- Maximum FLS diameter, Mean ± SD ([3]; LNG 0.115 mg per day, BMI < 30 kg/m^2, entire treatment period): 19.8 ± 7.5 mm
- Maximum FLS diameter, Mean ± SD ([3]; LNG 0.115 mg per day, BMI ≥ 30 kg/m^2, entire treatment period): 27.9 ± 4.4 mm
- Maximum FLS diameter, Mean ± SD [3, 11]: 21.4 ± 7.7 mm
- Maximum FLS diameter, Median [3, 11]: 20.8 mm
- Maximum FLS diameter, Mean ± SD [3, 12]: 20.4 ± 7.9 mm
- Maximum FLS diameter, Median [3, 12]: 20.3 mm
- Maximum FLS diameter, Mean ± SD [3, 13]: 19.9 ± 7.5 mm
- Maximum FLS diameter, Median [3, 13]: 20.8 mm
- Maximum FLS diameter, Mean ± SD ([3]; LNG 0.135 mg per day, BMI < 30 kg/m^2, entire treatment period): 18.4 ± 5.0 mm
- Maximum FLS diameter, Mean ± SD ([3]; LNG 0.135 mg per day, BMI ≥ 30 kg/m^2, entire treatment period): 19.0 ± 7.1 mm
- Maximum FLS diameter, Mean ± SD [3, 14]: 18.5 ± 5.3 mm
- Maximum FLS diameter, Median [3, 14]: 18.1 mm
- FLS diameter in one subject with possible abnormal ovulation ([3]; LNG 0.135 mg per day, one subject (BMI 20.4 kg/m^2), treatment day 3): 12.3 mm
- Maximum FLS diameter, Mean ± SD [3, 15]: 16.6 ± 5.7 mm
- Maximum FLS diameter, Median [3, 15]: 13.9 mm
- Maximum FLS diameter, Mean ± SD [3, 16]: 17.4 ± 5.0 mm
- Maximum FLS diameter, Median [3, 16]: 16.8 mm
- Ovulation observed, average days after last treatment ([4]; LNG 0.095 mg per day for 56 days): 15.5 days
- Ovulation observed, average days after last treatment ([4]; LNG 0.115 mg per day for 56 days): 14.1 days
- Ovulation observed, average days after last treatment ([4]; LNG 0.135 mg per day for 56 days): 12.8 days
- P concentrations after post-treatment ovulation ([4]; majority of subjects, within the 30-day post-treatment period): ≥ 16 nmol/L
